Results as given in patent US20130085161A1, “PIPERIDINYL SUBSTITUTED 1,3-DIHYDRO-BENZOIMIDAZOL-2-YLIDENEAMINE DERIVATIVES” (NOVARTIS AG, priority 2010, published 2013).
pIC50: −log10 of the molar value.

How the values were obtained:
BaF3-Tel-IGF1-R [1] = molecular target: T1, BaF3-Tel-IGF1-R (Homo sapiens, UniProt P08069); assay: BaF3 cell viability assay (resazurin/AlamarBlue), 96-well format; format: cell-based; conditions: 96-well plate format; 48 h incubation; resazurin dye reduction; cell proliferation/viability
T1 construct: the kinase domain of IGF-1R (aa 976-1367) linked by a Ser-Arg-linker; expressed in transfected cells; host or cells: BaF3 murine proB-cell lymphoma cells, stably transduced
T1 sequence (P08069 976-1367): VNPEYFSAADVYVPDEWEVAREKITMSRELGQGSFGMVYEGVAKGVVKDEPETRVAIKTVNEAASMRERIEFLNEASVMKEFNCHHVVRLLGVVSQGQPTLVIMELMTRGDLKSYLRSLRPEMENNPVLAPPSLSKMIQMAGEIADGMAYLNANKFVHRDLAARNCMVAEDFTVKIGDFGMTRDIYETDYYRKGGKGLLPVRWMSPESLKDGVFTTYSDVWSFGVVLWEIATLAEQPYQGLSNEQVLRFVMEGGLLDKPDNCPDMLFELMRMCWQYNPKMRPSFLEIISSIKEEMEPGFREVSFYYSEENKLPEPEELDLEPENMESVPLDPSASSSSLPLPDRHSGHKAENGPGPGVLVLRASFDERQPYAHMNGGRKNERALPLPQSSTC
Description: BaF3-Tel-IGF1-R and BaF3-InsR are BaF3 murine proB-cell lymphoma cell derivatives [the BaF3 cell line (also termed Ba/F3) is available from the German Collection of Microorganisms and Cell Cultures (DSMZ), Braunschweig, Germany] that have been rendered IL-3-independent by stable transduction with kinase-activating fusions between human TEL (aa 1-452) and the kinase domain of IGF-1R (aa 976-1367) linked by a Ser-Arg-linker (Boulay et al, Cancer Res 68, 3743-3751, 2008), and a fusion between human TEL (aa 1-337) and the kinase domain (aa 1015-1382) of the Insulin receptor (Melnick J S et al, Proc Natl Acad Sci USA 103, 3153-3158, 2006), respectively. Cells are cultured in RPMI-1640 (Animed #1-14F01-1) supplemented with 2% L-glutamine (Animed #5-10K50-H) and 10% fetal calf serum (FCS, Animed #2-01F16-I). Wild-type, untransfected BaF3 cells are maintained in above medium plus 10 U/ml IL-3 (mouse Interleukin-3, Roche #1380745 or Invitrogen # PMC0035) and are used to identify non-selective, generally growth-inhibitory compounds. Cells (1.5×10^4 cells per well) are seeded in 190 μl fresh medium into 96-well plates. […] In addition, a plate blank value is routinely determined in a well containing only 100 μl of medium and no cells. […] Following incubation of the cells for 48 h at 37° C. and 5% CO2, the effect of inhibitors on cell viability is assessed by the resazurin sodium salt dye reduction assay (commercially known as AlamarBlue assay) basically as previously described (O'Brien J. et al., Eur. J. Biochem. 267: 5421-5426, 2000). […] Thereafter, fluorescence is measured using a Saphirell 96-well plate reader (TECAN, Männedorf, Switzerland) with the following settings: Excitation 544 nm and Emission 590 nm. […] The effect of a particular test compound concentration on cell proliferation and viability is expressed as percentage of the blank-corrected reading obtained for cells treated with vehicle only, which is set as 100%. IC50 values can be determined using XLfit (V4.2), applying standard four parameter logistic model #205 (IDBS, Guilford, UK) or other common curve-fitting software.

BaF3-Tel-IGF1-R [2] = molecular target: T1, BaF3-Tel-IGF1-R; assay: BaF3 cell viability assay (resazurin), 384-well format; format: cell-based; conditions: 384-well plate format; 48 h incubation; resazurin dye reduction; cell proliferation/viability
Description: BaF3-Tel-IGF1-R and BaF3-InsR are BaF3 murine proB-cell lymphoma cell derivatives [the BaF3 cell line (also termed Ba/F3) is available from the German Collection of Microorganisms and Cell Cultures (DSMZ), Braunschweig, Germany] that have been rendered IL-3-independent by stable transduction with kinase-activating fusions between human TEL (aa 1-452) and the kinase domain of IGF-1R (aa 976-1367) linked by a Ser-Arg-linker (Boulay et al, Cancer Res 68, 3743-3751, 2008), and a fusion between human TEL (aa 1-337) and the kinase domain (aa 1015-1382) of the Insulin receptor (Melnick J S et al, Proc Natl Acad Sci USA 103, 3153-3158, 2006), respectively. Cells are cultured in RPMI-1640 (Animed #1-14F01-1) supplemented with 2% L-glutamine (Animed #5-10K50-H) and 10% fetal calf serum (FCS, Animed #2-01F16-I). Wild-type, untransfected BaF3 cells are maintained in above medium plus 10 U/ml IL-3 (mouse Interleukin-3, Roche #1380745 or Invitrogen # PMC0035) and are used to identify non-selective, generally growth-inhibitory compounds. Cells (1.5×10^4 cells per well) are seeded in 190 μl fresh medium into 96-well plates. 10 μl 20× compound solutions are added. As internal control, the kinase inhibitor PKC412 is routinely used. Control cells treated with DMSO (0.1% final concentration) serve as growth reference (set as 100% growth). In addition, a plate blank value is routinely determined in a well containing only […] of medium and no cells. IC50 determinations are performed based on eight 3-fold serial dilutions of the test compound, starting at 10 μM. Following incubation of the cells for 48 h at 37° C. and 5% CO2, the effect of inhibitors on cell viability is assessed by the resazurin sodium salt dye reduction assay (commercially known as AlamarBlue assay) basically as previously described (O'Brien J. et al., Eur. J. Biochem. 267: 5421-5426, 2000). Briefly, 20 μl dye solution is added per well and the plates incubated for 6 h at 37° C. and 5% CO2. Thereafter, fluorescence is measured using a Saphirell 96-well plate reader (TECAN, Männedorf, Switzerland) with the following settings: Excitation 544 nm and Emission 590 nm. For data analysis, the plate blank value is subtracted from all data points. The effect of a particular test compound concentration on cell proliferation and viability is expressed as percentage of the blank-corrected reading obtained for cells treated with vehicle only, which is set as 100%. IC50 values can be determined using XLfit (V4.2), applying standard four parameter logistic model #205 (IDBS, Guilford, UK) or other common curve-fitting software.
To achieve a higher throughput, the cell viability assay can also be performed in a 384-well format. Briefly, 4′500 freshly diluted cells are seeded in 54 μl/well into 384-well plates using a liquid dispenser. 6 μl 10× compound solution is added to the cell plate. As internal control, the kinase inhibitor PKC412 is routinely used. Control cells treated with DMSO (0.1% final concentration) serve as growth reference (set as 100% growth). In addition, a plate blank value is routinely determined in a well containing only 60 μl of medium and no cells. Dose-response effects are determined by 3-fold serial compound dilutions, starting at 10 μM. Following incubation of the cells for 48 h at 37° C. and 5% CO2, the effect of compounds on cell proliferation/viability is assessed by addition of 6 μl resazurin sodium salt dye solution per well. Following incubation for an additional 6 hrs at 37° C. and 5% CO2, fluorescence is measured using an Infiniti M1000 microplate reader (TECAN, Männedorf, Switzerland) with excitation and emission wavelengths set at 544 and 590 nm, respectively. For data analysis, the plate blank value is subtracted from all data points. IC50 values can be determined by four parameter logistic fitting as described above.

Structure (SMILES)	pIC50 (BaF3-Tel-IGF1-R [1])	pIC50 (BaF3-Tel-IGF1-R [2])
Cc1cccc(N2CCC(n3c(=N)n(Cc4cc(F)ccc4Cl)c4ccccc43)CC2)c1 [Example 55, 1-(2-Chloro-5-fluoro-benzyl)-3-(1-m-tolyl-piperidin-4-yl)-1,3-dihydro-benzoimidazol-2-ylideneamine]	6.54	–
CC(=O)Nc1ccccc1N1CCC(n2c(=N)n(Cc3ccccc3Cl)c3ccccc32)CC1 [Example 56.6, N-(2-{4-[3-(2-Chloro-benzyl)-2-imino-2,3-dihydro-benzoimidazol-1-yl]-piperidin-1-yl}-phenyl)-acetamide]	7.03	6.83
CC(=O)Nc1ccc(C)nc1N1CC[C@H](n2c(=N)n(Cc3cccc4[nH]ccc34)c3ccc(F)cc32)[C@@H](O)C1 (racemic) [Example 67.3, Rac-trans-N-{4-[6-Fluoro-2-imino-3-(1H-indol-4-yl-methyl)-2,3-dihydro-benzo-imidazol-1-yl]-3-hydroxy-6′-methyl-3,4,5,6-tetrahydro-2H-[1,2′]bipyridinyl-3′-yl}-acetamide]	–	6.78
CC(=O)Nc1ccc(Cl)cc1N1CCC(n2c(=N)n(Cc3cccc4[nH]cnc34)c3ccc(F)cc32)CC1 [Example 64, N-(2-{4-[3-(1H-Benzoimidazol-4-ylmethyl)-6-fluoro-2-imino-2,3-dihydro-benzoimidazol-1-yl]-piperidin-1-yl}-4-chloro-phenyl)-acetamide]	–	6.79
CC(=O)/N=c1\n(Cc2cccc3[nH]ccc23)c2ccccc2n1C1CCN(c2cc(C)ccc2NC(C)=O)CC1 [Example 66, N-(2-{4-[2-Acetylimino-3-(1H-indol-4-ylmethyl)-2,3-dihydro-benzoimidazol-1-yl]-piperidin-1-yl}-4-methyl-phenyl)-acetamide]	–	6.74
CC(=O)Nc1ccc(C)cc1N1CCC(n2c(=N)n(Cc3cccc4[nH]ccc34)c3ccccc32)CC1 [Example 56, N-(2-{4-[2-Imino-3-(1H-indol-4-ylmethyl)-2,3-dihydro-benzoimidazol-1-yl]-piperidin-1-yl}-4-methyl-phenyl)acetamide]	–	> 8.35
CC(=O)Nc1ccc(C(F)(F)F)cc1N1CCC(n2c(=N)n(Cc3ccccc3Cl)c3ccc(F)cc32)CC1 [Example 56.17, N-(2-{4-[3-(2-Chloro-benzyl)-6-fluoro-2-imino-2,3-dihydro-benzoimidazol-1-yl]-piperidin-1-yl}-4-trifluoromethyl-phenyl)-acetamide]	–	7.42
CC(=O)Nc1ccccc1N1CCC(n2c(=N)n(Cc3cccc4[nH]ccc34)c3ccccc32)CC1 [Example 56.2, N-(2-{4-[2-Imino-3-(1H-indol-4-ylmethyl)-2,3-dihydro-benzoimidazol-1-yl]-piperidin-1-yl}-phenyl)-acetamide]	–	7.38
COc1ccc(NC(C)=O)c(N2CCC(n3c(=N)n(Cc4cccc5[nH]ccc45)c4ccc(F)cc43)CC2)c1 [Example 56.13, N-(2-{4-[6-Fluoro-2-imino-3-(1H-indol-4-ylmethyl)-2,3-dihydro-benzoimidazol-1-yl]-piperidin-1-yl}-4-methoxy-phenyl)-acetamide]	–	8.05
CC(=O)Nc1ccc(C(F)(F)F)cc1N1CCC(n2c(=N)n(Cc3cccc4[nH]nnc34)c3ccccc32)CC1 [Example 56.8, N-(2-{4-[3-(1H-Benzotriazol-4-ylmethyl)-2-imino-2,3-dihydro-benzoimidazol-1-yl]-piperidin-1-yl}-4-trifluoromethyl-phenyl)-acetamide]	–	6.68
CC(=O)Nc1ccc(C(F)(F)F)cc1N1CCC(n2c(=N)n(Cc3cccc4[nH]nnc34)c3ccc(F)cc32)CC1 [Example 56.14, N-(2-{4-[3-(1H-Benzotriazol-4-ylmethyl)-6-fluoro-2-imino-2,3-dihydro-benzoimidazol-1-yl]-piperidin-1-yl}-4-trifluoromethyl-phenyl)-acetamide]	–	7.64
CC(=O)Nc1ccc(C(F)(F)F)cc1N1CCC(n2c(=N)n(Cc3cccc4[nH]ccc34)c3ccc(F)cc32)CC1 [Example 56.16, N-(2-{4-[6-Fluoro-2-imino-3-(1H-indol-4-ylmethyl)-2,3-dihydro-benzoimidazol-1-yl]-piperidin-1-yl}-4-trifluoromethyl-phenyl)-acetamide]	–	7.41
CC(=O)Nc1ccc(Cl)nc1N1CCC(n2c(=N)n(Cc3ccccc3Cl)c3ccc(F)cc32)CC1 [Example 77, N-{6′-Chloro-4-[3-(2-chloro-benzyl)-6-fluoro-2-imino-2,3-dihydro-benzoimidazol-1-yl]-3,4,5,6-tetrahydro-2H-[1,2′]bipyridinyl-3′-yl}-acetamide]	–	7.17
CC(=O)Nc1ccc(Cl)cc1N1CC[C@H](n2c(=N)n(Cc3ccccc3Cl)c3ccc(F)cc32)[C@@H](O)C1 (racemic) [Example 67.1, Rac-trans-N-(4-Chloro-2-{4-[3-(2-chloro-benzyl)-6-fluoro-2-imino-2,3-dihydro-benzo-imidazol-1-yl]-3-hydroxy-piperidin-1-yl}-phenyl)-acetamide]	–	8.00
Cc1cccc(N2CCC(n3c(=N)n(Cc4ccccc4Cl)c4ccccc43)CC2)c1 [Example 54, 1-(2-Chloro-benzyl)-3-(1-m-tolyl-piperidin-4-yl)-1,3-dihydro-benzoimidazol-2-ylideneamine]	6.39	–
CC(=O)Nc1ccc(C#N)cc1N1CCC(n2c(=N)n(Cc3ccccc3Cl)c3ccccc32)CC1 [Example 56.9, N-(2-{4-[3-(2-Chloro-benzyl)-2-imino-2,3-dihydro-benzoimidazol-1-yl]-piperidin-1-yl}-4-cyano-phenyl)-acetamide]	–	7.09
CC(=O)Nc1ccc(C(F)(F)F)cc1N1CCC(n2c(=N)n(Cc3ccccc3Cl)c3ccccc32)CC1 [Example 56.7, N-(2-{4-[3-(2-Chloro-benzyl)-2-imino-2,3-dihydro-benzoimidazol-1-yl]-piperidin-1-yl}-4-trifluoromethyl-phenyl)-acetamide]	–	7.16
CC(=O)Nc1ccc(C#N)cc1N1CCC(n2c(=N)n(Cc3cccc4[nH]ccc34)c3ccc(F)cc32)CC1 [Example 56.11, N-(4-Cyano-2-{4-[6-fluoro-2-imino-3-(1H-indol-4-ylmethyl)-2,3-dihydro-benzoimidazol-1-yl]-piperidin-1-yl}-phenyl)-acetamide]	–	7.80
CC(=O)Nc1ccc(Cl)cc1N1CCC(n2c(=N)n(Cc3cccc4[nH]nnc34)c3ccc(F)cc32)CC1 [Example 63, N-(2-{4-[3-(1H-Benzotriazol-4-ylmethyl)-6-fluoro-2-imino-2,3-dihydro-benzoimidazol-1-yl]-piperidin-1-yl}-4-chloro-phenyl)-acetamide]	–	7.66
CC(=O)Nc1ccc(Cl)cc1N1CC[C@H](n2c(=N)n(Cc3cccc4[nH]ccc34)c3ccc(F)cc32)[C@@H](O)C1 (racemic) [Example 67, Rac-trans-N-(4-Chloro-2-{4-[6-fluoro-2-imino-3-(1H-indol-4-ylmethyl)-2,3-dihydro-benzoimidazol-1-yl]-3-hydroxy-piperidin-1-yl}-phenyl)-acetamide]	–	7.64
CC(=O)Nc1ccc(C(F)(F)F)cc1N1CCC(n2c(=N)n(Cc3cccc4[nH]ccc34)c3ccccc32)CC1 [Example 56.3, N-(2-{4-[2-Imino-3-(1H-indol-4-ylmethyl)-2,3-dihydro-benzoimidazol-1-yl]-piperidin-1-yl}-4-trifluoromethyl-phenyl)-acetamide]	–	7.28
